In patent US5854282A, “3-benzoyl benzofuran derivatives as thyroid hormone antagonists” (Karo Bio AB, priority 1994, dated 1998):

How the values were obtained:
[1] = target: T1, human thyroid hormone receptor α (Homo sapiens, UniProt P10827); test: ALP reporter gene activity in TRAF α thyroid hormone reporter cells (agonism/antagonism ± T3); format: cell-based; details: for partial agonist/antagonist activity in the ThRα reporter cell line: ±1 nM T3; for antagonism to T3 in the ThRα reporter cell line / augmention of the agonism of T3 in the ThRα reporter cell line: in the presence of 1 nM T3
T1 sequence (P10827 1-370): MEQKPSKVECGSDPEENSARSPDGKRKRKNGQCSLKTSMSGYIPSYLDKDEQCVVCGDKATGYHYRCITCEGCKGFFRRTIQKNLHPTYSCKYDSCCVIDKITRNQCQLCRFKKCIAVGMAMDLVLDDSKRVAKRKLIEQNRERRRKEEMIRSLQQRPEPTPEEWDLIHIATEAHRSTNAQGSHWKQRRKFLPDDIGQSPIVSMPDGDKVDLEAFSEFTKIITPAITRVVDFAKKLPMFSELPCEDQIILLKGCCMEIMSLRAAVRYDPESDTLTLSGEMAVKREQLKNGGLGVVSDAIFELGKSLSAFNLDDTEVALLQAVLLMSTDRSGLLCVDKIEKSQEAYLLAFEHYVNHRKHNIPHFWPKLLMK
Method: (§1) The biological activity of compounds in accordance with the invention was tested in thyroid hormone responsive reporter cell lines.
(§2) The thyroid hormone reporter cell lines (TRAF α and TRAF β) are genetically engineered, mammalian cell lines expressing thyroid hormone receptor (ThR) α and β, respectively. These thyroid hormone responding cell lines contain stable integrated artificial transcription units comprised of a thyroid hormone response element (TRE) and core promoter sequences fused to a downstream reporter gene encoding a secreted form of alkaline phosphatase (ALP).
(§3) In the absence of thyroid hormone the cells express only very low levels of the ALP reporter protein. […] The level of thyroid hormone dependent ALP protein expressed can be determined indirectly by an enzymatic chemiluminescence assay as previously described (Advances in Steroid Analysis '93, editor: Gorog S., Proceedings of the 5th Symposium on the analysis of Steroids, Published by Akademiai Kiado, Budapest, Hungary, p. 57-67). Briefly, an aliquot of the conditioned cell culture medium is mixed with AMPPD (disodium 3-4-methoxyspiro(1,2-dioxetane-3,2'-tricyclo(3,3.1)decan)-4-yl) phenyl phosphate containing assay buffer and incubated at 37° C. for 20 minutes. AMPPD was purchased from Boule Diagnostic, Sweden. The ALP in the medium sample dephosphorylates AMPPD generating an unstable intermediate which decomposes and emits light which is measured in a microplate format luminometer (Luminoskan, Labsystems, Finland). The rate of light emission is directly proportional to the level of ALP present in the sample.
The TRAF α and β cells, respectively, were seeded at a density of 2-2.5×10^4 cells/well in 96-well microtiterplates (suitable for growth of mammalian cells). The cells were seeded in Coon's medium (without phenolred) (SVA, Uppsala, Sweden)+10% FCS (Gibco-BRL) (hormone stripped) and cultivated overnight at 37° C. and 5% CO2 in a humidified incubator.
The cells were then cultivated at 37° C. and 5% CO2 in a humidified incubator for an additional 48 hours.
48 hours post addition of the hormonal/test compounds, cell number and cell morphology were examined under the light-microscope. A 10 μl aliquot of conditioned medium from each well was then transferred to white microtiterplates and assayed for the level of ALP reporter protein expressed (as described in Advances in Steroid Analysis '93 above). In addition, the cell toxic effect of compounds was determined by the colorimetric MTS/PMS assay according to the suppliers recommendation (Promega Corp. through Scandinavian Diagnostic Services, Sweden)
Hormone/test compounds added to the TRAF α and β reporter cells, respectively, per well in 96-well microtiter plates

[2] = target: T2, human thyroid hormone receptor β (Homo sapiens, UniProt P10828); test: ALP reporter gene activity in TRAF β thyroid hormone reporter cells (agonism/antagonism ± T3); format: cell-based; details: for antagonist activity in the ThRβ reporter cell line: in the presence of 1 nM T3
T2 sequence (P10828 1-461): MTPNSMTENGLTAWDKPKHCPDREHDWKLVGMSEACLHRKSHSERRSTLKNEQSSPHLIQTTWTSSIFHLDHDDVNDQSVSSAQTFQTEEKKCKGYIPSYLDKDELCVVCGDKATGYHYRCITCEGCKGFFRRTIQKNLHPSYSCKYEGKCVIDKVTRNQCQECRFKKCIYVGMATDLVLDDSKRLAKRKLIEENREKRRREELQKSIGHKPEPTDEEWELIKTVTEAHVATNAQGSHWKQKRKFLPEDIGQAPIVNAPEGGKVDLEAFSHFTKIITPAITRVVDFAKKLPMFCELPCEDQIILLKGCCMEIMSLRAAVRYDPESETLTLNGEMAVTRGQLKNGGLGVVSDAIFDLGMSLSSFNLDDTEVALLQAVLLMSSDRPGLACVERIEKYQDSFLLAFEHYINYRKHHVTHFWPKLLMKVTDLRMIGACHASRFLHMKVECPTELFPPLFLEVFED
Method: as §1, §2, §3
The TRAF α and β cells, respectively, were seeded at a density of 2-2.5×10^4 cells/well in 96-well microtiterplates (suitable for growth of mammalian cells). […]
48 hours post addition of the hormonal/test compounds, cell number and cell morphology were examined under the light-microscope. […] In addition, the cell toxic effect of compounds was determined by the colorimetric MTS/PMS assay according to the suppliers recommendation (Promega Corp. through Scandinavian Diagnostic Services, Sweden) […]

[3] = target: T3, human thyroid hormone receptor β1 (ThRβ1) (Homo sapiens, UniProt P10828); test: Competition with 125I-T3 for binding to human thyroid hormone receptor β1 (ThRβ1); details: competition with 0.2 nM 125I-T3
T3 sequence (P10828 1-461): T2 sequence (P10828 1-461)
Method: (§4) A series of dilutions of each compound produced (Examples 1-15) were allowed to compete with a fixed concentration (0.2 nM) of ^125 I-T3 for binding to the human thyroid hormone receptor β1 (ThRβ1). In some examples, binding to the human thyroid hormone receptor α1 (ThRα1) was included.
(§5) After reaching equilibrium a separation step on Sephadex-G25 columns was introduced whereby the receptors were separated from compounds of low molecular weight (i.e the radioactive labeled hormones). The eluated receptor bound radioactivity was measured in a gamma-counter or with regular liquid scintillation counting.
(§6) An IC50 -value (The concentration of compound required to inhibit 50% of the binding of radioactive labeled hormone) was calculated from the curves.

[4] = target: T4, human thyroid hormone receptor α1 (ThRα1) (Homo sapiens, UniProt P10827); test: Competition with 125I-T3 for binding to human thyroid hormone receptor α1 (ThRα1); details: competition with 0.2 nM 125I-T3
T4 sequence (P10827 1-410 isoform P10827-2): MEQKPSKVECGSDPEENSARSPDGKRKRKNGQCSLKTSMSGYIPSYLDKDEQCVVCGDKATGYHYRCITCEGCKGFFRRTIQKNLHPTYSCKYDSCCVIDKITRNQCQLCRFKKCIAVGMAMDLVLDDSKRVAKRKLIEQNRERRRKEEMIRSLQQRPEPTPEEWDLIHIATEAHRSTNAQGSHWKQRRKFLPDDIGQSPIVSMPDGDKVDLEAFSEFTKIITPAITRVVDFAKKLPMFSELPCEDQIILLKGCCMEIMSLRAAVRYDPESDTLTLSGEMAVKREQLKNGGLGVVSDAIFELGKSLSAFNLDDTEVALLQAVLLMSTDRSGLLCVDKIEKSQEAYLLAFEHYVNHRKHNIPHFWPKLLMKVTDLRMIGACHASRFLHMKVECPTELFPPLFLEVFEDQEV
Method: as §4, §5, §6

Compound | IC50 [3] | IC50 [4] | further results
COc1ccc(C(=O)Nc2ccc3oc(C(C)C)c(C(=O)c4cc(Br)c(OCC(=O)O)c(Br)c4)c3c2)cc1 [Example 14, 2-Isopropyl-3-(3,5-dibromo-4-carboxymethoxybenzoyl)-5-(4-methoxybenzamido)benzofuran] | 3.47 µM | 3.63 µM | partial agonist/antagonist activity in the ThRα reporter cell line [1]: partial agonist/antagonist activity; antagonist activity in the ThRβ reporter cell line [2]: no or only weak antagonist activity
CCCCc1oc2ccc(NC(=O)c3ccc(F)cc3)cc2c1C(=O)c1cc(I)c(OCC(=O)O)c(I)c1 [Example 9, 2-n-Butyl-3-(3,5-diiodo-4-carboxymethoxybenzoyl)-5-(4-fluorobenzamido)benzofuran] | 3.55 µM | 3.31 µM | 
CCCCc1oc2ccc(NC(=O)Nc3ccc(OC)cc3)cc2c1C(=O)c1cc(I)c(OCC(=O)O)c(I)c1 [Example 11, 2-n-Butyl-3-(3,5-diiodo-4-carboxymethoxybenzoyl)-5-(4-methoxyphenylureido)benzofuran] | 3.72 µM | 3.24 µM | partial agonist/antagonist activity in the ThRα reporter cell line [1]: partial agonist/antagonist activity; partial agonist/antagonist activity in the ThRβ reporter cell line ([2]; ±1 nM T3): partial agonist/antagonist activity
CC(C)c1oc2ccc(NC(=O)c3ccc([N+](=O)[O-])cc3)cc2c1C(=O)c1cc(I)c(OCC(=O)O)c(I)c1 [Example 10, 2-Isopropyl-3-(3,5-diiodo-4-carboxymethoxybenzoyl)-5-(4-nitrobenzamido)benzofuran] | 4.27 µM |  | 
CC(C)c1oc2ccc(NC(=O)c3ccc(O)cc3)cc2c1C(=O)c1cc(Br)c(OCC(=O)O)c(Br)c1 [Example 15, 2-Isopropyl-3-(3,5-dibromo-4-carboxymethoxybenzoyl)-5-(4-hydroxybenzamido)benzofuran] | 3.31 µM | 3.09 µM | partial agonist/antagonist activity in the ThRα reporter cell line [1]: partial agonist/antagonist activity; antagonist activity in the ThRβ reporter cell line [2]: no or only weak antagonist activity
CCCCc1oc2ccc(NC(=O)c3ccc(O)cc3)cc2c1C(=O)c1cc(I)c(OCC(=O)O)c(I)c1 [Example 4, 2-n-Butyl-3-(3,5-diiodo-4-carboxymethoxybenzoyl)-5-(4-hydroxybenzamido)benzofuran] | 2.04 µM | 2.51 µM | 
CCCCc1oc2ccc(NS(=O)(=O)C(F)(F)F)cc2c1C(=O)c1cc(I)c(OCC(=O)O)c(I)c1 [Example 1, 2-n-Butyl-3(3,5-diiodo-4-carboxymethoxybenzoyl)-5-trifluoromethylsulphonamidobenzofuran] | 2.24 µM |  | antagonism to T3 in the ThRα reporter cell line [1]: no antagonism to T3; augmention of the agonism of T3 in the ThRα reporter cell line [1]: concentration dependent augmention of the agonism of T3
CC(C)c1oc2ccc(NS(=O)(=O)C(F)(F)F)cc2c1Cc1cc(I)c(OCC(=O)O)c(I)c1 [Example 5, 2-Isopropyl-3-(3,5-diiodo-4-carboxymethoxybenzyl)-5-trifluoromethylsulphonamidobenzofuran] | 7.94 µM |  | antagonism to T3 in the ThRα reporter cell line [1]: no antagonism to T3; augmention of the agonism of T3 in the ThRα reporter cell line [1]: concentration dependent augmention of the agonism of T3
CCCCc1oc2ccc(NC(=O)c3ccc(O)cc3)cc2c1C(=O)c1cc(Br)c(OCC(=O)O)c(Br)c1 [Example 13, 2-n-Butyl-3-(3,5-dibromo-4-carboxymethoxybenzoyl)-5-(4-hydroxybenzamido)benzofuran] | 2.4 µM | 2.57 µM | 
CCCCc1oc2ccc(NC(=O)Nc3ccc(O)cc3)cc2c1C(=O)c1cc(I)c(OCC(=O)O)c(I)c1 [Example 12, 2-n-Butyl-3-(3,5-diiodo-4-carboxymethoxybenzoyl)-5-(4-hydroxyphenylureido)benzofuran] | 1.26 µM | 1.82 µM | 
CC(C)c1oc2ccc(NC(=O)c3ccc(O)cc3)cc2c1C(=O)c1cc(I)c(OCC(=O)O)c(I)c1 [Example 8, 2-Isopropyl-3-(3,5-diiodo-4-carboxymethoxybenzoyl)-5-(4-hydroxybenzamido)benzofuran] | 1.82 µM |  | 
CCCCc1oc2ccc(NC(=O)C(C)C)cc2c1C(=O)c1cc(I)c(OCC(=O)O)c(I)c1 [Example 2] | 6.61 µM |  | antagonism to T3 in the ThRα reporter cell line [1]: no antagonism to T3; augmention of the agonism of T3 in the ThRα reporter cell line [1]: concentration dependent augmention of the agonism of T3
COc1ccc(C(=O)Nc2ccc3oc(C(C)C)c(C(=O)c4cc(I)c(OCC(=O)O)c(I)c4)c3c2)cc1 [Example 7, 2-Isopropyl-3-(3,5-diiodo-4-carboxymethoxybenzoyl)-5-(4-methoxybenzamido)benzofuran] | 3.63 µM |  | 
CCCCc1oc2ccc(NC(=O)c3ccc(OC)cc3)cc2c1C(=O)c1cc(I)c(OCC(=O)O)c(I)c1 [Example 3, 2-n-Butyl-3-(3,5-diiodo-4-carboxymethoxybenzoyl)-5-(4-methoxybenzamido)benzofuran] | 1.51 µM |  | 
CC(C)c1oc2ccc(NS(=O)(=O)C(F)(F)F)cc2c1C(=O)c1cc(I)c(OCC(=O)O)c(I)c1 [Example 6, 2-isopropyl-3-(3,5-diiodo-4-carboxymethoxybenzoyl)-5-trifluoromethylsulphonamidobenzofuran] | 3.72 µM |  | 
